{
  "source": "paper PMC6838151",
  "about": "(Scientific Reports, 2019)",
  "key": {"C. albicans CAF2-1": {"system": "C. albicans CAF2-1", "assay": "microbe, parasite or virus in culture", "type": "cell-based, Candida albicans", "conditions": "for effect of combination with higher Flc concentrations: KeP (0.39 uM) / KeOP (1.56 uM) combined with 3.25 and 6.25 uM Flc, CAF2-1", "protocol": "The synergistic effects of KeOP/KeP with Flc were determined using the M27-A3 method with modifications. Flc and KeOP/KeP stock solutions in DMSO (10 mM) were (alone and simultaneously) diluted in RPMI-1640 medium to obtain final concentrations of^1/8; ^1/4; ^1/2; 1 × MIC50 towards C. albicans CAF2-1 strain in microdilution sterile plates (Sarstedt). Statistical significance analysis was performed using Student’s t-test ([…], unpaired) comparing viability in the presence of corresponding Flc concentrations with/without KeOP/KeP."}, "hASCs": {"system": "hASCs", "assay": "Confocal imaging of mitochondrial network (MitoRed) and F-actin (Phalloidin Atto 590) in hASCs", "type": "cell-based, human", "conditions": "20 µM, 24 h", "protocol": "The mitochondrial network was visualized using MitoRed staining. After 24-hours treatment with either Ke, KeP or KeOP, the media were removed and replaced with MitoRed dye in 1:1000 dilution in fresh complete media. Cells were incubated for 30 minutes at 37 °C, then washed with Phosphate Buffered Saline (PBS), fixed with 4% paraformaldehyde (PFA) solution, washed three times and nuclei were counterstained with diamidino-2-phenylindole (DAPI).\nIn order to perform F-actin imaging, cells were fixed with 4% PFA solution, washed with PBS and then permeabilized using 0.5% TX-100 (incubation 15 minutes, room temperature). The cells were rinsed and incubated with Phalloidin-Atto 590 solution in PBS (dilution 1:1000) at 37 °C for 30 minutes in the dark. After washing, the cells were counterstained with DAPI.\nCells were observed and images were taken using confocal microscopy performed with a Leica TCS-SP8 laser scanning confocal microscope. Data were further processed with the use of ImageJ software."}, "HepaRG cells": {"system": "HepaRG cells", "conditions": "cited from earlier work"}, "[1]": {"system": "hASCs (human adipose-derived stromal cells)", "assay": "Cytotoxicity IC50, TOX-8 resazurin assay, hASCs, 24 h", "type": "cell-based", "conditions": "hASCs, TOX-8 assay, 24 h", "protocol": "Human Adipose Tissue-derived Stem Cells (hASCs) were isolated from subcutaneous adipose tissue fragments harvested from non-diabetic female donors (age range 33–38, n = 2) during standard surgical procedure of total hip arthroplasty. Immediately after collection of tissue, the samples were placed in sterile tissue-transport medium (Hank’s Balanced Salt Solution (HBSS) supplemented with 1% Penicillin/Streptomycin/Amphotericin B solution (P/S/A). Mesenchymal stromal cell isolation was performed using enzymatic digestion of extracellular matrix with collagenase type I. Before digestion, tissue specimens were washed twice with HBSS and incubated in collagenase type I solution (1 mg/mL) at 37 °C for 40 min. The digest was subsequently centrifuged (1200 × g; 10 minutes; room temperature) and the cell pellet was resuspended in Dulbecco’s modified Eagle’s medium (DMEM) with Nutrient F-12 Ham, 10% of Fetal Bovine Serum (FBS), and 1% of P/S/A, transferred to a culture flask, and kept in culture under optimal conditions (37 °C in a humidified atmosphere of 5% CO2). The medium was refreshed every 2–3 days. At 80–90% confluence, the cells were passaged using trypsin solution (TrypLE Express, Life Technologies, California, USA). At passage 3, hASCs were collected and cellular phenotype was confirmed by the high expression of markers CD44, CD29, CD73, CD105 and low expression of CD45. Moreover, the trilineage differentiation capacity of ASCs was confirmed as previously described.\nThe IC50 values were determined using in vitro Toxicology TOX-8 Assay Kit (resazurin based) according to the manufacturer’s protocol. For this assay, cells were seeded in a 96-well plate at a density of 5 × 10^3 cells/well. The cells were pre-incubated in drug-free complete medium for 24 h before adding various concentrations of the compounds to be investigated. Stock solutions of the compounds were prepared in DMSO following serial dilutions in DMEM with Nutrient F-12 Ham complete medium. The cells exposure period was 24 h. After that time media were replaced with 10% v/v resazurin dye solution in fresh complete culture medium. Incubation was carried out for 2 h at 37 °C in the CO2 incubator. Reduction of the dye was measured spectrophotometrically at 600 nm and 690 nm reference wavelength (Epoch, Biotek). Absorbance measurements allowed the determination of viable treated cells relative to untreated controls using the inflection point of a dose-response graph. IC50 values were estimated as duplicates of triplicate readings in two independent experiments."}, "[2]": {"conditions": "Candida albicans, CAF21, read-out: Viability of C. albicans CAF2-1"}},
  "note": "Entries after “also recorded” stand apart in the source; their conditions may differ.",
  "data": [
    {"smiles": "O=P(CN1CCN(c2ccc(OC[C@H]3CO[C@](Cn4ccnc4)(c4ccc(Cl)cc4Cl)O3)cc2)CC1)(c1ccccc1)c1ccccc1", "note": "(racemic) [KeOP, Ph2P(O)CH2-Ke]", "values": [
      {"measurement": "viability at 0.1 µM", "setting": "C. albicans CAF2-1; [2]", "value": "102 ± 2.22", "unit": "%"},
      {"measurement": "viability at 0.2 µM", "setting": "C. albicans CAF2-1; [2]", "value": "93.9 ± 7.22", "unit": "%"},
      {"measurement": "viability at 0.39 µM", "setting": "C. albicans CAF2-1; [2]", "value": "91.2 ± 10.7", "unit": "%"},
      {"measurement": "effect of combination with higher Flc concentrations", "setting": "C. albicans CAF2-1", "value": "fungicidal effect"}
    ]},
    {"smiles": "Clc1ccc([C@@]2(Cn3ccnc3)OC[C@H](COc3ccc(N4CCN(CP(c5ccccc5)c5ccccc5)CC4)cc3)O2)c(Cl)c1", "note": "(racemic) [KeP, Ph2PCH2-Ke]", "values": [
      {"measurement": "mitochondrial membrane potential (MitoRed staining)", "setting": "hASCs", "value": "lowest mitochondrial membrane potential"},
      {"measurement": "number of mitochondria (MitoRed staining)", "setting": "hASCs", "value": "lowest number of mitochondria"},
      {"measurement": "MIC50 of Flc in combination", "setting": "C. albicans CAF2-1; C. albicans CAF2-1, with KeP (0.39 uM), reduced from 6.25 uM", "value": 1.56, "unit": "µM"},
      {"measurement": "viability at 0.39 µM", "setting": "C. albicans CAF2-1; [2]", "value": "115 ± 9.06", "unit": "%"},
      {"measurement": "viability at 0.78 µM", "setting": "C. albicans CAF2-1; [2]", "value": "102 ± 1.98", "unit": "%"},
      {"measurement": "viability at 1.56 µM", "setting": "C. albicans CAF2-1; [2]", "value": "96.8 ± 3.21", "unit": "%"},
      {"measurement": "effect of combination with higher Flc concentrations", "setting": "C. albicans CAF2-1", "value": "fungicidal effect"}
    ]},
    {"smiles": "CC(=O)N1CCN(c2ccc(OCC3COC(Cn4ccnc4)(c4ccc(Cl)cc4Cl)O3)cc2)CC1", "note": "(stereo not shown) [Ke, ketoconazole, reference compound]", "values": [
      {"measurement": "concentration at which cytotoxicity started", "setting": "HepaRG cells", "value": 100, "unit": "µM"}
    ]},
    {"smiles": "S=P(CN1CCN(c2ccc(OC[C@H]3CO[C@](Cn4ccnc4)(c4ccc(Cl)cc4Cl)O3)cc2)CC1)(c1ccccc1)c1ccccc1", "note": "[KeSP, Ph2P(S)CH2-Ke]", "values": [
      {"measurement": "IC50 (cytotoxicity, hASCs viability)", "setting": "[1]", "value": "not cytotoxic in the tested concentration range; also recorded: not toxic"}
    ]}
  ]
}
